Results as given in US6610706B1, “Crystalline form of 6-hydroxy-3-(4-[2-(piperidin-1-yl)ethoxy]phenoxy)-2-(4-methoxyphenyl)benzo[b]thiophene hydrochloride” (Eli Lilly and Company, priority 1999, dated 2003).

Tests used:
Format in all cases: physicochemical
[1] = Aqueous solubility and dissolution rate comparison of crystal forms; conditions: comparison of the two forms
[2] = Hygroscopicity / moisture sorption isotherms (VTI vacuum moisture balance)
Method: Hygroscopicicity studies were performed on F-I and F-III. Upon initial exposure of the samples to approximately 5% RH, there was an immediate weight gain of 1.5% and 1.7% moisture for F-I and F-III, respectively, equivalent to approximately 0.5 mole of water. Both forms show a continuous sorption of moisture through the entire humidity range, which is likely due to incorporation of water molecules in the lattices. The moisture sorption profiles for F-I and F-III reveal that these forms are essentially non-stoichiometric hydrates. At ambient relative humidity (about 50% RH), F-I contains approximately 1.7% water, corresponding to 0.5 moles of water, while F-III has sorbed about 3.0% water which corresponds to about 0.85 moles of water. The bulk forms of F-I and F-III rapidly equilibrate with the atmosphere, so that the water content observed by analytical techniques is a reflection of the relative humidity at the time of data collection. Lot-to-lot differences observed in the DSC data likely results from the samples being hydrated to different extents due to different ambient storage conditions. Hygroscopicity measurements were made for F-I and F-III using the VTI method as follows. Each sample was dried under vacuum at 60° C. until no further weight loss was detected, at which time the sample chamber was brought to 0% relative humidity. Moisture sorption isotherms were obtained at 25° C. using a VTI vacuum moisture balance with the following conditions: sample size 10-15 mg, adsorption/desorption range 0-95% relative humidity, step interval 5%, sample interval 10 minutes.

[3] = Stability at ambient temperature relative to arzoxifene prepared per '474; conditions: relative to arzoxifene produced by the procedures taught in '474
[4] = Stability of crystal forms stored at different relative humidities (XRD); conditions: entire relative humidity range (0-95% RH)
Method: XRD patterns were obtained for samples of F-I and F-III stored at different relative humidities (0, 22, 50, and 80%). There is a gradual shifting of the initial (0% RH) F-III peaks at about 13.8, 17.6, 18.0, 20.5 and 24.0° in 2θ as well as slight shifting of less intense peaks, as the relative humidity is increased. These observed changes in the XRD patterns of F-III indicate that the unit cell dimensions are changing, presumably to accommodate weakly held water molecules as the relative humidity is increased.
A similar experiment was carried out on F-I to determine whether varying the relative humidity would have a similar effect on its lattice (0, 25, 52, 73 and 95% RH). Very slight shifting of the 0% RH peaks at about 7.7, 18.3, 18.5, 20.5, 20.8° in 2θ is observed as the relative humidity is increased. […] The shifting of peaks in the XRD patterns of F-I is less dramatic than the peak shifts observed as F-III was exposed to different relative humidities.
XRD patterns were obtained on a Siemens D5000 X-ray powder diffractometer, equipped with a CuKα source (λ=1.54056 Å) and a Kevex solid-state detector, operating at 50 kV and 40 mA. Each sample was scanned between 4° and 35° in 2θ. Samples were allowed to equilibrate for at least 30 minutes at the desired temperature and/or relative humidity before data collection.

Structure (SMILES): COc1ccc(-c2sc3cc(O)ccc3c2Oc2ccc(OCCN3CCCCC3)cc2)cc1.Cl [F-III, 6-hydroxy-3-(4-[2-(piperidin-1-yl)ethoxy]phenoxy)-2-(4-methoxyphenyl)benzo[b]thiophene hydrochloride]
- aqueous solubilities (F-I versus F-III) [1]: comparable
- dissolution rates (F-I versus F-III) [1]: comparable
- water content at ambient relative humidity ([2]; about 50% RH): about 3.0%
- water content at ambient relative humidity, in moles of water ([2]; about 50% RH): about 0.85 moles
- water equivalent of the initial weight gain ([2]; approximately 5% RH): approximately 0.5 mole
- immediate weight gain (moisture) upon initial exposure ([2]; approximately 5% RH, 25° C., after vacuum drying at 60° C.): 1.7%
- stability at ambient temperature [3]: more stable at ambient temperature
- stability over relative humidity range [4]: stable over the entire relative humidity range
